Measurements from US4857650A, “Novel renin inhibitory amino acid derivatives” (Kissei Pharmaceutical Co., Ltd., priority 1985, dated 1989).

Assays:
[1] = molecular target: T1, human renin (Homo sapiens, UniProt P00797); assay: Human renin-sheep renin substrate reaction system in vitro; assay type: biochemical; settings: pH 7.4, 15 minutes at 37° C., read-out: IC50 (molar concentration)
T1 sequence (P00797 67-406): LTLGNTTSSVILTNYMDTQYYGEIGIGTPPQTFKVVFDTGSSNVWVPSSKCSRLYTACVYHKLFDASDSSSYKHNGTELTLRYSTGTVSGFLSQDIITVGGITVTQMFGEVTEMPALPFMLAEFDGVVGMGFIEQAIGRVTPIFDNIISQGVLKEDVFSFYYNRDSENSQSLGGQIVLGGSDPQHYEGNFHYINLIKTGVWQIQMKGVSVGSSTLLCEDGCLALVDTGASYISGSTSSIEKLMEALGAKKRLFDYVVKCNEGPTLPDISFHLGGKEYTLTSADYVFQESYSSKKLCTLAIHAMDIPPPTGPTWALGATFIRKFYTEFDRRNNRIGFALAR
Procedure: Human resin-sheep resin substrate reaction system in vitro To a mixture containing 200 μl of a 125 mM pyrophosphate buffer (pH 7.4), 25 μl of a 20 mM aqueous solution of […] as an angiotensin converting enzyme inhibitor, 50 μl of semipurified sheep renin substrate ([…]), 50 μl of dimethyl sulfoxide solution of an amino acid derivative of the present invention (or 50 μl of dimethyl sulfoxide as a control) and 150 μl of deionized water was added 25 μl of purified human renin (20-30 ng angiotensin I/ml/hr). The mixture was incubated for 15 minutes on a water bath at 37° C., and the reaction mixture was allowed to stand for 5 minutes on a water bath at 100° C. to stop the reaction. After cooling, 200 μl of the solution were taken up and the amount of angiotensin I produced by the addition of renin was determined by radioimmunoassay. The inhibitory effect was calculated by the following equation. [formula] The molar concentration which produced 50% inhibition (IC50) was calculated from the inhibition value obtained, and the results are shown below.

[2] = molecular target: T2, renin in human high renin plasma (Homo sapiens, UniProt P00797); assay: Renin inhibitory effect in a human high renin plasma; assay type: biochemical; settings: pH 7.4, 30 minutes at 37° C., read-out: IC50 (molar concentration)
T2 construct: 500 μl of human high renin plasma; from tissue; host or cells: human high renin plasma
T2 sequence (P00797 67-406): T1 sequence (P00797 67-406)
Procedure: Renin inhibitory effect in a human high renin plasma A mixture of 350 μl of a 0.5M phosphate buffer containing 14 mM EDTA 2Na and a 0.3% neomycin sulfate, which was adjusted to the pH of 7.4, 50 μl of a 20 mM an aqueous solution of […] as an angiotensin converting enzyme inhibitor and 100 μl of dimethyl sulfoxide solution containing an amino acid compound of the present invention was added to 500 μl of human high renin plasma. […] was incubated for 30 minutes at 37° C. in a water bath. A 200 μl sample was withdrawn from the incubated mixture, chilled immediately in an ice bath, and the amount of angiotensin I produced was determined by radioimmunoassay, and remaining of the mixture (200 μ[…] 4° C. in an ice bath. The amount of angiotensin I produced in the incubated mixture at 4° C. in an ice bath was determined by radioimmunoassay. As a control, the same procedure as above was carried out by using 100 μl of dimethyl sulfoxide alone in place of the 100 μl of dimethyl sulfoxide solution containing an amino acid compound of the present invention. The inhibitory effect was calculated by the following equation. [formula] The molar concentration which produced 50% inhibition (IC50) was calculated from the inhibition value obtained, and the results are shown below.

Row | IC50 [1] [nM] | IC50 [2] [nM] | SMILES
1 | 520 | 490 | CC(C)C[C@H](NC(=O)[C@H](Cc1c[nH]cn1)NC(=O)C(CC(N)=O)Cc1cccc2ccccc12)C(O)C(=O)OC(C)C (mixture of isomers) [Isopropyl (2RS,3S)-3-{N-[3-(carbamoyl)-2-(1-naphthylmethyl)propionyl]-L-histidyl}amino-2-hydroxy-5-methylhexanoate]
2 | 64 | 160 | CC(C)C[C@H](NC(=O)[C@H](Cc1c[nH]cn1)NC(=O)C(CC(=O)OC(C)C)Cc1cccc2ccccc12)C(O)C(=O)OC(C)C (mixture of isomers) [Isopropyl (2RS,3S)-3-{N-[3-(isopropoxycarbonyl)-2-(1-naphthylmethyl)propionyl]-L-histidyl}amino-2-hydroxy-5-methylhexanoate]
3 | 41 | 28 | CC(C)C[C@H](NC(=O)[C@H](Cc1c[nH]cn1)NC(=O)C(CC(=O)N(C)CCO)Cc1cccc2ccccc12)C(O)C(=O)OC(C)C (mixture of isomers) [Isopropyl(2RS,3S)-3-{N-{2-(1-naphthylmethyl)-3-[N-methyl-N-(2-hydroxyethyl)carbamoyl]propionyl}-L-histidyl}amino-2-hydroxy-5-methylhexanoate]
4 | 17 | 17 | COC(=O)CCN(C)C(=O)CC(Cc1cccc2ccccc12)C(=O)N[C@@H](Cc1c[nH]cn1)C(=O)N[C@@H](CC(C)C)C(O)C(=O)OC(C)C (mixture of isomers) [Isopropyl(2RS,3S)-3-{N-{2-(1-naphthylmethyl)-3-[N-methyl-N-{2-methoxycarbonylethyl)carbamoyl]propionyl}-L-histidyl}amino-2-hydroxy-5-methylhexanoate]
5 | 89 | 180 | CC(C)C[C@H](NC(=O)[C@H](Cc1c[nH]cn1)NC(=O)C(CC(=O)N(CCO)CCO)Cc1cccc2ccccc12)C(O)C(=O)OC(C)C (mixture of isomers) [Isopropyl(2RS,3S)-3-{N-{2-(1-naphthylmethyl)-3-[bis(2-hydroxyethyl)carbamoyl]propionyl}-L-histidyl}amino-2-hydroxy-5-methylhexanoate]
6 | 33 | 16 | COC(=O)[C@H](C)N(C)C(=O)CC(Cc1cccc2ccccc12)C(=O)N[C@@H](Cc1c[nH]cn1)C(=O)N[C@@H](CC(C)C)C(O)C(=O)OC(C)C (stereo partly drawn) [Isopropyl(2RS,3S)-3-{N-{2-(1-naphthylmethyl)-3-[N-methyl-N-(1S-methoxycarbonylethyl)carbamoyl]propionyl}-L-histidyl}amino-2-hydroxy-5-methylhexanoate]

Further lines, the molecule ahead of its results:

Row | SMILES | IC50 [1] [nM] | IC50 [2] [nM]
7 | COC(=O)CC(Cc1cccc2ccccc12)C(=O)N[C@@H](Cc1c[nH]cn1)C(=O)N[C@@H](CC(C)C)C(O)C(=O)NCCC(C)C (mixture of isomers) [(2RS,3S)-3-[3-Methoxycarbonyl-2-(1-naphthylmethyl)propionyl-L-histidyl]amino-2-hydroxy-5-methylhexanoylisoamylamide] | 220 | 690
8 | COC(=O)CN(C)C(=O)CC(Cc1cccc2ccccc12)C(=O)N[C@@H](Cc1c[nH]cn1)C(=O)N[C@@H](CC(C)C)C(O)C(=O)NCCC(C)C (mixture of isomers) [(2RS,3S)-3-{N-[2-(1-Naphthylmethyl)-3-(N-methyl-N-methoxycarbonylmethylcarbamoyl)propionyl]-L-histidyl}amino-2-hydroxy-5-methylhexanoylisoamylamide] | 23 | 339
9 | COC(=O)CNC(=O)CC(Cc1cccc2ccccc12)C(=O)N[C@@H](Cc1c[nH]cn1)C(=O)N[C@@H](CC(C)C)C(O)C(=O)OC(C)C (mixture of isomers) [Isopropyl(2RS,3S)-3-{N-[2-(1-naphthylmethyl)-3-(N-methoxycarbonylmethylcarbamoyl)propionyl]-L-histidyl}amino-2-hydroxy-5-methylhexanoate] | 240 | 76
10 | CNC(=O)CNC(=O)CC(Cc1cccc2ccccc12)C(=O)N[C@@H](Cc1c[nH]cn1)C(=O)N[C@@H](CC(C)C)C(O)C(=O)OC(C)C (mixture of isomers) [Isopropyl(2RS,3S)-3-{N-[2-(1-naphthylmethyl)-3-(N-methylcarbamoylmethylcarbamoyl)propionyl]-L-histidyl}amino-2-hydroxy-5-methylhexanoate] | 620 | 290
11 | COC(=O)CN(C)C(=O)CC(Cc1cccc2ccccc12)C(=O)N[C@@H](Cc1c[nH]cn1)C(=O)N[C@@H](CC(C)C)C(O)C(=O)OC (mixture of isomers) [Methyl(2RS,3S)-3-{N-[2-(1-naphthylmethyl)-3-(N-methyl-N-methoxycarbonylmethylcarbamoyl)propionyl]-L-histidyl}amino-2-hydroxy-5-methylhexanoate] | 12 | 14
12 | COC(=O)[C@@H]1CCCN1C(=O)CC(Cc1cccc2ccccc12)C(=O)N[C@@H](Cc1c[nH]cn1)C(=O)N[C@@H](CC(C)C)C(O)C(=O)NCCC(C)C (stereo partly drawn) [(2RS,3S)-3-{N-[2-(1-Naphthylmethyl)-3-(2S-methoxycarbonylpyrrolidinocarbonyl)propionyl]-L-histidyl}amino-2-hydroxy-5-methylhexanoylisoamylamide] | 84 | 290
13 | CC(C)C[C@H](NC(=O)[C@H](Cc1c[nH]cn1)NC(=O)C(CC(=O)N1CCC[C@H]1CO)Cc1cccc2ccccc12)C(O)C(=O)OC(C)C (stereo partly drawn) [Isopropyl(2RS,3S)-3-{N-[2-(1-naphthylmethyl)-3-(2S-hydroxymethylpyrrolidinocarbonyl)propionyl]-L-histidyl}amino-2-hydroxy-5-methylhexanoate] | 23 | 140
14 | COC(=O)[C@@H]1CC(O)CN1C(=O)CC(Cc1cccc2ccccc12)C(=O)N[C@@H](Cc1c[nH]cn1)C(=O)N[C@@H](CC(C)C)C(O)C(=O)OC(C)C (stereo partly drawn) [Isopropyl(2RS,3S)-3-{N-[2-(1-naphthylmethyl)-3-(4-hydroxy-2S-methoxycarbonylpyrrolidinocarbonyl)-propionyl]-L-histidyl}amino-2-hydroxy-5-methylhexanoate] | 41 | 190
15 | CC(C)C[C@H](NC(=O)[C@H](Cc1c[nH]cn1)NC(=O)C(CC(=O)N[C@@H](C)C(N)=O)Cc1cccc2ccccc12)C(O)C(=O)OC(C)C (stereo partly drawn) [Isopropyl(2RS,3S)-3-{N-{2-(1-naphthylmethyl)-3-[N-(1S-carbamoylethyl)carbamoyl]propionyl}-L-histidyl}amino-2-hydroxy-5-methylhexanoate] | 440 | 240
16 | COC(=O)[C@H](C)NC(=O)CC(Cc1cccc2ccccc12)C(=O)N[C@@H](Cc1c[nH]cn1)C(=O)N[C@@H](CC(C)C)C(O)C(=O)OC(C)C (stereo partly drawn) [Isopropyl(2RS,3S)-3-{N-{2-(1-naphthylmethyl)-3-[N-(1S-methoxycarbonylethyl)carbamoyl]propionyl}-L-histidyl}amino-2-hydroxy-5-methylhexanoate] | 300 | 210
17 | COC(=O)C[C@@H](C(=O)OC)N(C)C(=O)CC(Cc1cccc2ccccc12)C(=O)N[C@@H](Cc1c[nH]cn1)C(=O)N[C@@H](CC(C)C)C(O)C(=O)OC(C)C (stereo partly drawn) [Isopropyl(2RS,3S)-3-{N-{2-(1-naphthylmethyl)-3-[N-methyl-N-(1S,2-bismethoxycarbonylethyl)carbamoyl]-propionyl}-L-histidyl}amino-2-hydroxy-5-methylhexanoate] | 81 | 190
18 | COC(=O)[C@H]1CCCN1C(=O)CC(Cc1cccc2ccccc12)C(=O)N[C@@H](Cc1c[nH]cn1)C(=O)N[C@@H](CC(C)C)C(O)C(=O)OC(C)C (stereo partly drawn) [Isopyl(2RS,3S)-3-{N-[2-(1-naphthylmethyl)-3-(2R-methoxycarbonylpyrrolidinocarbonyl)propionyl]-L-histidyl}amino-2-hydroxy-5-methylhexanoate] | 28 | 15
